Assay results from patent US20250319053A1, “INHIBITORS OF THE PEPTIDYL-PROLYL CIS/TRANS ISOMERASE (PIN1), COMBINATIONS AND USES THEREOF” (DANA-FARBER CANCER INSTITUTE, INC., priority 2021, published 2025).

How the values were obtained:
human PDAC organoids = assay: Organoid apoptosis assay (caspase 3/7) with GEM or 5-FU; type: cell-based
Procedure: The organoids were isolated from Matrigel using collagenase, and seed Matrigel coated 96 well plate, and then treated with control (PBS) or GEM, or control (DMSO) or 5-FU, followed by assaying organoid apoptosis using fluorescent caspase 3/7 and live-cell time lapse imaging for 24 hr. At the start of coculture, a green-fluorescent caspase 3/7 probe reagent (R37111, Invitrogen) and Hoechst (135102, Invitrogen) was added to visualize cells undergoing apoptosis. Apoptotic organoids were monitored by time lapse imaging using BZ-X800 fluorescence microscope (KEYENCE) and quantified using BZ-X800 analyzer (ver. 1.1.1.8, KEYENCE). […] Synergy scores were calculated by Synergyfinder ver 2 (synergyfinder.fimm.fi/) (Ianevski et al., Nucleic Acids Res. 48 IW1), […]-[…] (2020)).

[1] = system: patient-derived PDAC tumors in PDTX mice; assay: Patient-derived tumor orthotopic xenograft (PDTX) mouse model; type: in vivo
Source text: Allelic profiling of resulting KPC mice by the B6 panel (Jackson Laboratories) confirmed 129S1/SvImJ with average match of 84.2%, 129S4SvJae with average match of 83.8%, B6N with average match of 65.7% and B6J, with average match of 65.1%. 2) the KPC Genetically engineered mouse-derived orthotopic allografts (GDA) mouse model (Hingorani et al., Cancer Cell 7, 469-483 (2005); Li et al., Comput Struct Biotechnol J 17, 498-506 (2019)). Mouse PDAC cells were established from KPC mouse pancreatic tumor tissues, followed by orthotopically injecting 1×10^6 mouse PDAC cells in 50 μL Matrigel (356231, Coaning) into the pancreas of female 8 week-old syngeneic immunocompetent C57BL/6 mice (Jackson Laboratories). 3) PDAC Patient-derived Tumor orthotopic xenografted (PDTX) mouse model (Gilles et al., Clin Cancer Res 24, 1734-1747 (2018); Rubio-Viqueira et al., Clin Cancer Res 12, 4652-4661 (2006)). PDAC PDX tumors were obtained from Dr. Muthuswamy and Dr. Hidalgo and divided into 4×2 mm pieces, followed by xenografting orthotopically into the pancreas of female 8-week-old immunodeficient NOD.Cg-Prkdc^scid Il12rg^tm1Wjl/SzJ (NOD scid gamma; NSG) mice (Jackson Laboratories). 4) PDAC Patient-derived Organoid and CAFs orthotopic xenograft (PDOX) mouse model (Dantes et al., JCI Insight 5, 137809 (2020); (Koikawa et al., Cancer letters 425, 65-77 (2018)). 5×10^4 patient derived PDAC organoids and 5×10^4 patient derived CAFs in 50 μL of Matrigel were injected orthotopically into the pancreas of female 8 week-old immunodeficient NSG mice (Jackson Laboratories).
Briefly, all mice were randomly selected to receive treatments groups. Tumor sizes were measured by weekly palpation with electronic caliper or ultrasound, and when tumors were reached >0.5 cm, the treatment was started. Briefly, animals were placed under general anesthesia with 2%-3% isoflurane once a week. Under general anesthesia, the abdominal wall became very flaccid, and the muscle tone of the mouse was very low. The mouse was scuffed with the left hand to allow for palpation and measurement with the right hand. This allowed to detect the firm pancreatic mass by palpation, and to determine its size by electronic caliper measurements. […] In the GDA model and PDX models, palpable tumors predictably were detectable within 4-7 days post implantation. […] When the tumor by palpation after age 12 weeks could not be detected, the mice were monitored by ultrasound. Once the maximum length >0.5 cm tumor was detected, the mice were randomized to treatment, and then followed tumor growth by electronic caliper measurement. To validate the external caliper measurements, the tumor size was measured prior to euthanization of the mice and then measured the actual tumor size upon necropsy to ascertain concordance. […]

| SMILES | organoid apoptosis, agent alone (human PDAC organoids; GEM at 25 nM for 24 hrs) | Median survival ([1]; PDTX mice, FIG. 8M, GEM 20 mg/kg, n=6, vehicle 36 days) [days] | apoptosis in WT organoids (human PDAC organoids; Pin1i−2 at 5 μM 3 days, then GEM at 25 nM for 24 hrs) | GEM-mediated organoid apoptosis (human PDAC organoids; pre-treated with Pin1i−1 at 10 μM or Pin1i−2 at 5 μM for 72 hrs, then GEM at 25 nM for 24 hrs) | CAF activation (IF for αSMA or PDGFRα) ([1]; PDTX mice, 4 weeks) | collagen deposition (Sirius Red staining) ([1]; PDTX mice, 4 weeks) | tumor growth ([1]; overt tumor-bearing PDTX mice, 4 weeks) |
| --- | --- | --- | --- | --- | --- | --- | --- |
| Nc1ccn([C@@H]2O[C@H](CO)[C@@H](O)C2(F)F)c(=O)n1 [GEM, gemcitabine, reference compound] | neither Pin1i nor GEM alone had obvious effect | 42.5 |  |  |  |  |  |
| CC(C)(C)CN(C(=O)CCl)C1CCS(=O)(=O)C1 (stereo not shown) [Pin1i−2, sulfopin] |  |  | induced apoptosis in WT organoids | greatly potentiated GEM-mediated organoid apoptosis | significantly reduced | significantly reduced | significantly reduced tumor growth |
